Assay results: patent publication US20240278234A1, “SAMPLE PREPARATION” (priority 2021, published 2024)

Test system: SARS-CoV-2 target genes E gene, RdRP gene and human RP (positive control)
Experiment: RT-qPCR amplification (YouSeq E-RdRP kit) in the presence of lysis agents: test for PCR inhibition
Format: biochemical
Settings: for qPCR amplification curves, FIG. 4: 2%-0.2% agent; for qPCR amplification curves, FIG. 5: 0.2% and 0.06% agent; for inhibition of amplification (summary of FIGS. 4 and 5): agents tested at 2%, 0.6%, 0.2% and 0.02%, 45 cycles
Method: An E-RdRP kit from YouSeq was used, which is designed to detect SARS-CoV-2, and includes a positive control containing the SARS-CoV-2 target genes E gene, RdRP gene and human RP (as an internal control). Each reaction included: • 10 μL MasterMix • 1 μL Primer/Probe • 3 μL Water • 1 μL Template or Water • 5 μL Buffers
PCR was carried out under the following conditions: • 55 C for 10 mins RT Step • 95 C for 3 mins denaturation • x45 Cycles • 95 C for 15 secs • 60 C for 60 secs
Amplification was monitored using a Quantstudio Q5.

| SMILES | qPCR amplification curves, FIG. 4 | qPCR amplification curves, FIG. 5 | inhibition of amplification (summary of FIGS. 4 and 5) |
| --- | --- | --- | --- |
| [H]/N=C(\N/C(=N/[H])NCCCCCCNC(=N)NC(=N)Nc1ccc(Cl)cc1)Nc1ccc(Cl)cc1 [chlorhexidine] | Clear PCR inhibitions | no significant inhibition | inhibit at higher concentrations |
| CC(C)=CCCC(C)=CC=O [citral] | clear inhibitory effect between 2%-0.2% | no significant inhibition | inhibit at higher concentrations |
